Like-named read-outs stand apart in the source and are kept apart here.
Tests used:
[1] = cited from earlier work
[2] = after 10 week supplementation; cited from earlier work

Row | Molecule | paraesthesia symptoms ([1]; 10 mg per kg body weight, some individuals) | paraesthesia symptoms ([1]; 20 mg per kg bodyweight, majority of individuals) | paraesthesia symptoms ([1]; 40 mg per kg body weight) | ingested amount that causes paraesthesia ([1]; in solution or as powder in gelatin capsules) | duration of paraesthesia ([1]; oral) | time to beginning of paraesthesia after oral administration ([1]; oral) | increase in intramuscular carnosine content, average [2] [%] | additional β-alanine administrable before symptoms of paraesthesia, compared with β-alanine alone (human subjects, oral) | single oral dose administered before the onset of paraesthesia was noted (human subjects, oral, gelatin capsules, single dose) | equivalent β-alanine dose before onset of paraesthesia (salt mass is about 40.45% β-alanine)
1 | NCCC(=O)O [β-alanine, 3-Aminopropanoic acid] | mild symptoms | significant symptoms | severe symptoms | above 10 mg per kg body weight | up to 1 hour | about 20 minutes | 80.1 | – | – | –
2 | creatine β-alaninate | – | – | – | – | – | – | – | roughly 100% | up to 55.00 mg/kg | about 22.25 mg/kg
